{
  "source": "patent US20220288022A1",
  "about": "“PHARMACEUTICAL COMPOSITION FOR TOPICAL USE THAT IS IN THE FORM OF A DISPERSED PHASE BASED ON AT LEAST ONE SHORT DIOL IN A CONTINUOUS FATTY PHASE AND COMPRISING AT LEAST ONE ANTI-INFLAMMATORY SUBSTANCE” (SOCIETE D'EXPLOITATION DE PRODUITS POUR LES INDUSTRIES …, priority 2019, published 2022)",
  "assay": "Conductivity (σ) of the emulsions, characterization of the direction of the emulsion",
  "format": "physicochemical",
  "conditions": "measured at 25° C., neat diol",
  "method": "The conductivity (σ) of the emulsions (F1) to (F3) according to the invention and of the emulsions (F′1) to (F′3) is measured at 25° C., after a period of storage of said emulsions of one day in an insulated climatic chamber regulated at a temperature of 25° C., by means of an LF 196™ brand conductivity meter from the company WTW equipped with a TetraCon™ 96 electrode. If, for a given emulsion, (σ)≤0.5 μS.cm^−1, the emulsion is considered to be non-conductive and consequently the external phase is not the phase based on 1,2-propanediol but the oily phase. Indeed, the conductivity, measured at 25° C., of 1,2-propanediol is equal to 4400 μS.cm^−1. If, for a given emulsion, (σ)>0.5 μS.cm^−1, the emulsion is considered to be conductive and consequently the external phase is not the oily phase but the phase based on 1,2-propanediol or glycerol or PEG-400. This same measurement of the conductivity of the emulsions (F1) to (F3) according to the invention and of the comparative emulsions (F′1) to (F′3) is measured at 25° C. after three months at 25° C., and after three months at 45° C.",
  "data": [
    {"smiles": "CC(O)CO", "note": "(stereo not shown) [1,2-propanediol]", "values": [
      {"measurement": "conductivity of 1,2-propanediol", "result": 4400, "unit": "μS.cm^−1"}
    ]}
  ]
}
